Patent publication US20060024264A1, “Antimicrobial copolymers and uses thereof” (priority 2004, published 2006)

System: E. coli
Assay: Antimicrobial assays (MIC, cell growth by optical density at 595 nm)
Type: cell-based
Conditions: Escherichia coli; incubation time 18 hours; 2-fold dilution series 500-3.9 μg/mL
Procedure: Antimicrobial assays. Each polymer was dissolved in DMSO (5 mg/mL). […] The polymer solutions with E. coli were incubated at 36° C. for 18 hours, and cell growth was measured by optical density at λ=595 nm (Liu, D., et al., Angew. Chem. Int. Ed., 43:1158 (2004); Tew, G. N., et al., PNAS 99:5110 (2002)).

MIC: > 500 µg/mL
Compound: C=C(C)C(=O)OCCN.Cl [Monomer, 2-aminoethyl methacrylate hydrochloride]
